Reference: patent US8048884B2, “Substituted piperazinyl pyrazines and pyridines as 5-HT7 receptor antagonists” (Eli Lilly and Company, priority 2007, dated 2011)
Values joined by “and” are separate entries in the source; they are usually repeats but may differ in a detail not shown here. Equal entries are not always repeated. Structures can show the parent of a compound that is named as a salt.

What was measured:
[1] = biological target: T1, 5-HT7 receptor (Homo sapiens, UniProt P34969); experiment: Functional antagonist assay: measurement of cAMP formation; type: cell-based; details: 5-HT7-expressing AV-12 cells; for Kb: antagonist potency
T1 construct: expressed in transfected cells
Experimental: For cAMP functional assays, the 5-HT7-expressing cells from above are grown in 150 cm^2 flasks and processed essentially as follows. The media is aspirated from the flasks and cells are washed with 1 mL PBS. The cells are released from monolayer with enzyme free cell dissociation solution (Specialtymedia CAT#S-004-B, www.Chemicon.com) and resuspended in complete media. A sample of the cells is counted and the remainder is centrifuged as above for 3 min. The resulting cell pellet is resuspended in PBS at a concentration of 1×10^6 cells per mL and used directly in the cAMP assay as described.
The 5-HT7 receptor is functionally coupled to a G-protein as measured by the ability of serotonin and serotonergic drugs to stimulate cAMP production in CHO cells transfected with the 5-HT7 receptor. (Ruat, et al., Proceedings of the National Academy of Sciences (USA), 90:8547-8551, 1993.) Accordingly, functional receptor activity can be measured by measuring adenylate cyclase activity using a commercially available cell-based, homogeneous, time resolved fluorescence assay kit, as for example the kit produced by Cisbio-US, Inc. (Bedford, Mass.). Essentially, and using the protocol and reagents provided by the manufacturer, approximately 20,000 human 5-HT7 receptor-expressing AV-12 cells (as described above) are used with test compound dose concentrations in the range described for the binding assay. […] A cAMP standard curve is also run in every experiment. After the assay plates are read in an Envision™ instrument (Perkin-Elmer, Wellesley Mass.), the data are normalized to the standard curve and converted to percent inhibition for data analysis as described above for the receptor binding assay results. The Kb (nM) is calculated as a measure of the antagonist potency of the compound. Preferred compounds are those having percent inhibition>75%. Still other preferred compounds are those having Kb<50 nM.

[2] = biological target: T2, 5-HT2B (Homo sapiens, UniProt P41595); experiment: Radioligand binding assay, 5-HT2B subtype
T2 construct: expressed in transfected cells
Experimental: (§1) [^3H] […] The reactions are incubated at room temperature for 3 hr. and then counted in a Trilux Microbeta™ scintillation counter to detect receptor-bound radioligand. Binding data is analyzed by computer-assisted 4 parameter fit analysis (ID Business Solutions Ltd, Guildford, Surrey, UK). […]
(§2) Affinity for other serotonin receptor subtypes as well as for alpha 1 & 2 adrenergic receptors can readily be determined by modification of the above described radioligand receptor binding assay using membranes derived from cells stably expressing the desired receptor subtype including the 5-HT1A, 5-HT1B, and 5-HT1D subtypes, as well as the 5-HT2A, 5-HT2B, 5-HT2C, 5-HT4, 5-HT5, and 5-HT6 receptor subtypes. […]

[3] = biological target: alpha 2 adrenergic; experiment: Radioligand binding assay, alpha 2 adrenergic
Experimental: as §1, §2

[4] = biological target: T3, 5-HT4 (Homo sapiens, UniProt Q13639); experiment: Radioligand binding assay, 5-HT4 subtype
T3 construct: expressed in transfected cells
Experimental: as §1, §2

[5] = biological target: alpha 1 adrenergic; experiment: Radioligand binding assay, alpha 1 adrenergic
Experimental: as §1, §2

[6] = biological target: T4, 5-HT1D (Homo sapiens, UniProt P28221); experiment: Radioligand binding assay, 5-HT1D subtype
T4 construct: expressed in transfected cells
Experimental: as §1, §2

[7] = biological target: T5, 5-HT1A (Homo sapiens, UniProt P08908); experiment: Radioligand binding assay, 5-HT1A subtype
T5 construct: expressed in transfected cells
T5 sequence (P08908 1-422): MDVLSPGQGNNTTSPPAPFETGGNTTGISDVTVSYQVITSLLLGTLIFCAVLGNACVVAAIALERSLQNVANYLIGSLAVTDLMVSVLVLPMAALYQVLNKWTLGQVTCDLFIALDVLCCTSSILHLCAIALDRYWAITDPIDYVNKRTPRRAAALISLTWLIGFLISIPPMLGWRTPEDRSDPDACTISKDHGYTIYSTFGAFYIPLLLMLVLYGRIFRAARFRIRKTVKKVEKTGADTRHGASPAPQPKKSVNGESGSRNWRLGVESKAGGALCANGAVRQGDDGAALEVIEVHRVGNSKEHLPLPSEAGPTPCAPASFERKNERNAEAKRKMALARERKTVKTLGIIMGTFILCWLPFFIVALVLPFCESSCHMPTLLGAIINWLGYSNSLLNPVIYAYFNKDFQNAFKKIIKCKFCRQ
Experimental: as §1, §2

[8] = biological target: T6, 5-HT1B (Homo sapiens, UniProt P28222); experiment: Radioligand binding assay, 5-HT1B subtype
T6 construct: expressed in transfected cells
Experimental: as §1, §2

[9] = biological target: T7, 5-HT2A (Homo sapiens, UniProt P28223); experiment: Radioligand binding assay, 5-HT2A subtype
T7 construct: expressed in transfected cells
Experimental: as §1, §2

[10] = biological target: T8, 5-HT2C (Homo sapiens, UniProt P28335); experiment: Radioligand binding assay, 5-HT2C subtype
T8 construct: expressed in transfected cells
T8 sequence (P28335 33-458): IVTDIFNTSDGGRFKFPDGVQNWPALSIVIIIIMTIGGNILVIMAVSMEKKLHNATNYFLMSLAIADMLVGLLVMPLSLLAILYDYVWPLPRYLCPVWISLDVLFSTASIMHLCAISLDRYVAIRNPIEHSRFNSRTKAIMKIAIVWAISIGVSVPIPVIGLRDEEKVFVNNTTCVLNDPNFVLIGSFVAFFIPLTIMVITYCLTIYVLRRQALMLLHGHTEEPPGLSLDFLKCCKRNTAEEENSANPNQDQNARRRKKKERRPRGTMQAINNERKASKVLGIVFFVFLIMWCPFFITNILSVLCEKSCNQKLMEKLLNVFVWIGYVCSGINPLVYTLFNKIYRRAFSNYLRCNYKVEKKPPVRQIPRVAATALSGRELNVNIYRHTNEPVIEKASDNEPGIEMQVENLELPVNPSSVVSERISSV
Experimental: as §1, §2

[11] = biological target: T9, 5-HT5 (Homo sapiens, UniProt P47898); experiment: Radioligand binding assay, 5-HT5 subtype
T9 construct: expressed in transfected cells
Experimental: as §1, §2

[12] = biological target: T10, 5-HT6 (Homo sapiens, UniProt P50406); experiment: Radioligand binding assay, 5-HT6 subtype
T10 construct: expressed in transfected cells
Experimental: as §1, §2

[13] = biological target: T1, 5-HT7 receptor; experiment: 5-HT7 receptor affinity: [3H]5-HT radioligand binding assay; details: [3H]5-HT competition, membranes of AV-12 cells
Experimental: Membranes for affinity and antagonist activity assays are prepared essentially as follows. AV-12 cells, stably expressing the 5-HT7 receptor, are grown as a monolayer in 5×T-150 flasks in DMEM/F12 (3:1) 5% FBS, 20 mM HEPES, […] geneticin, 50 mg/mL tobramycin. After growing to 90% confluence the media is removed and replaced with Hybritech media (a low calcium version of DMEM/F12 media having 11 mg/L calcium) containing 2% horse serum, […] dextran sulfate, 1 mg/mL nucellin, 1 mg/mL human transferrin (partially iron saturated), 50 mg/mL tobramycin, 20 mM HEPES, […] geneticin, 0.04% pluronic F68. The cells are grown overnight to condition the media. The next morning the conditioned media (−150 mL total) is removed and set aside in a sterile container. The cells are trypsinized and collected in the conditioned media. […]
To prepare membranes, the above pellets are resuspended in ice-cold Tris buffer (20 mM Tris HCl, pH 7.4 at 23° C., 5 mM EDTA) and homogenized with a Wheaton tissue grinder. […] Protein concentrations are determined by the method of Bradford. […]
as §1

[14] = test system: male Harlan Sprague-Dawley rats; experiment: Animal model of dural plasma protein extravasation (PPE); type: in vivo, rat
Excerpt: The dural plasma protein extravasation model is an established model for migraine. The ability of a test compound to reduce extravasation of plasma proteins into the dura under assay conditions is considered indicative of the compound's ability to reduce or prevent the dural inflammation thought to be symptomatic of migraine. (see Johnson, K. W., et al., Neuroreport, 8 (1997) 2237-2240.)
To assay compounds for their ability to reduce or prevent dural plasma protein extravasation, male Harlan Sprague-Dawley rats (250-350 g) are anesthetized with sodium pentobarbital (65 mg/kg, i.p.) and placed in a stereotaxic frame (David Kopf Instruments) with the incisor bar set at −2.5 mm. Following a midline sagittal scalp incision, 2 pairs of bilateral holes are drilled through the skull (3.2 mm posterially, 1.8 and 3.8 mm laterally, all coordinates referenced to bregma). […]
The amount of FITC-BSA for each sample is quantified with a fluorescence microscope (Zeiss) equipped with a grating monochromator, a spectrophotometer, and a computer driven stage. Fluorescence measurements are taken at 25 points in a 5×5 grid in 500 μm steps on each dural sample with an excitation wavelength of approximately 490 nm and emission intensity measured at approximately 535 nm. The mean and standard deviation of the 25 measurements are determined. […]

T1 sequence (P34969 whole entry): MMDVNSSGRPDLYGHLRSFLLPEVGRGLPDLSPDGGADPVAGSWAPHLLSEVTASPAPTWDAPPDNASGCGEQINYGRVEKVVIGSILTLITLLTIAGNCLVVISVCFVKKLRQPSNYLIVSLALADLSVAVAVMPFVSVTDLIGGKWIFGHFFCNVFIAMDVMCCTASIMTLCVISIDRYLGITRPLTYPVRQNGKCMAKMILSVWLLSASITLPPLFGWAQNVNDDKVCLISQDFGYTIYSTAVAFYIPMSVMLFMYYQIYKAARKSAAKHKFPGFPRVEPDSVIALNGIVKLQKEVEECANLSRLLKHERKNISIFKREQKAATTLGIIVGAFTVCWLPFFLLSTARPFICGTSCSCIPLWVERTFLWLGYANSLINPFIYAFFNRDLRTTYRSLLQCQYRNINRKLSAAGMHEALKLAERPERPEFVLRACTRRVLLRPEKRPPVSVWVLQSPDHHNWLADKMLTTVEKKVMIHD
T7 sequence (P28223 whole entry, species assumed): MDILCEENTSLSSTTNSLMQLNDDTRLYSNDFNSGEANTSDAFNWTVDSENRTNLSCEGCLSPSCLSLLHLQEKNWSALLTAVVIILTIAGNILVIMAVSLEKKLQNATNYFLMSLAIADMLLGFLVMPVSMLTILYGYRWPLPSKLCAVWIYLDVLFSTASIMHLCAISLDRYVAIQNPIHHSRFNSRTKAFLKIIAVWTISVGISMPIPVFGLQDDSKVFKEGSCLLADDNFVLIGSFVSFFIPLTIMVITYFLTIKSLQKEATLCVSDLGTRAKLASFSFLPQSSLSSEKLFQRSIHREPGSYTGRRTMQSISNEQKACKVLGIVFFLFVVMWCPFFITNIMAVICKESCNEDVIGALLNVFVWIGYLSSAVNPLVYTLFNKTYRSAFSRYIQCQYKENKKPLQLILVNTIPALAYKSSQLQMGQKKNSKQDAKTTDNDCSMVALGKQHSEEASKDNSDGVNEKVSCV
T6 sequence (P28222 whole entry, species assumed): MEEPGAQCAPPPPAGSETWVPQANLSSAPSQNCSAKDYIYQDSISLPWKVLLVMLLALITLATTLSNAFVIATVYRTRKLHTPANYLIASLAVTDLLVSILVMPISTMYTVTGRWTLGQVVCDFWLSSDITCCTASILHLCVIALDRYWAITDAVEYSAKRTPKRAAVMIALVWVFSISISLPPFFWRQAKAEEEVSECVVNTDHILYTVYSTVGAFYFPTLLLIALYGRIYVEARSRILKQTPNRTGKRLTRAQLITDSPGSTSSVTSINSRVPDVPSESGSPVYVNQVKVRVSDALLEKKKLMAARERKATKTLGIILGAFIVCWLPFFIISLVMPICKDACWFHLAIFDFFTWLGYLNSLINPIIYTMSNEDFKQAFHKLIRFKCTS
T10 sequence (P50406 whole entry, species assumed): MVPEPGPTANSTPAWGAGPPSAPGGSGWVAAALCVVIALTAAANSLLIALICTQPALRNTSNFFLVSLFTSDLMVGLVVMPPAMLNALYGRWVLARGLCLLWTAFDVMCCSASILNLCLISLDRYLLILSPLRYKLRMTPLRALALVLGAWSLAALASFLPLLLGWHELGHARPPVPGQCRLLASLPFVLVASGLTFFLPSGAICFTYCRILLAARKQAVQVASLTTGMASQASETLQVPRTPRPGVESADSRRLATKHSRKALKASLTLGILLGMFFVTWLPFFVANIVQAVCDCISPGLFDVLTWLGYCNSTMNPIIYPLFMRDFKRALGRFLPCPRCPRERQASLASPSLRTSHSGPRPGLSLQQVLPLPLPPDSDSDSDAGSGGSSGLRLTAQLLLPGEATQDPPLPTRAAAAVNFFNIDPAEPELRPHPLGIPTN
T2 sequence (P41595 whole entry, species assumed): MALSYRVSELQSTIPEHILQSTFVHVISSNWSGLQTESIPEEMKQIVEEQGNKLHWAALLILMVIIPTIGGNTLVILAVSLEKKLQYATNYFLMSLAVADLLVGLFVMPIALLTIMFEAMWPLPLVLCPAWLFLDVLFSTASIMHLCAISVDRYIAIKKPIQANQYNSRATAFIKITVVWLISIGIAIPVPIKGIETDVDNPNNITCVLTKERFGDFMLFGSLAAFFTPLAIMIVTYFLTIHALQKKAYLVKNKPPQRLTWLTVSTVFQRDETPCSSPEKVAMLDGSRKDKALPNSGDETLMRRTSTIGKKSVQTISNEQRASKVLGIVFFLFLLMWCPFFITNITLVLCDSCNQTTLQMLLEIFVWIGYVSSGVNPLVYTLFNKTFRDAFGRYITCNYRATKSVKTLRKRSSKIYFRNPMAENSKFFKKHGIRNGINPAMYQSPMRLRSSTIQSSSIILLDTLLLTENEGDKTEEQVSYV
T9 sequence (P47898 whole entry, species assumed): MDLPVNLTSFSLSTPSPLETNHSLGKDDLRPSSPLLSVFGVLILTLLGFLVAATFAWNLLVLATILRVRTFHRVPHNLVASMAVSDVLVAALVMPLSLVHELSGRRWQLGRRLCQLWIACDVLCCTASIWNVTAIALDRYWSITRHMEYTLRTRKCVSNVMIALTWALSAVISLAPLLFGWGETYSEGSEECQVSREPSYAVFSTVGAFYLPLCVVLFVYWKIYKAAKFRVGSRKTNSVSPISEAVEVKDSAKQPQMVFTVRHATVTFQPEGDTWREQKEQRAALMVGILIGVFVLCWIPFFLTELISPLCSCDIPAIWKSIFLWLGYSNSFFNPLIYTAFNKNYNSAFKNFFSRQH
T4 sequence (P28221 whole entry, species assumed): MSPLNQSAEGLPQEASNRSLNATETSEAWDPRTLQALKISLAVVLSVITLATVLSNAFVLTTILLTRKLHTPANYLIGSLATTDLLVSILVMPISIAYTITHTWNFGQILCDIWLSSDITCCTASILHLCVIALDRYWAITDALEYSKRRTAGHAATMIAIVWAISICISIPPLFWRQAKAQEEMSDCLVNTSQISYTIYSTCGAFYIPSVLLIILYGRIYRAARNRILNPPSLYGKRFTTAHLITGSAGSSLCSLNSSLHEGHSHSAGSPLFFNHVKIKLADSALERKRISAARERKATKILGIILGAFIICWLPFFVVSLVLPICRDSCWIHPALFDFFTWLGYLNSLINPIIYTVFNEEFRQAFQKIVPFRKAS
T3 sequence (Q13639 whole entry, species assumed): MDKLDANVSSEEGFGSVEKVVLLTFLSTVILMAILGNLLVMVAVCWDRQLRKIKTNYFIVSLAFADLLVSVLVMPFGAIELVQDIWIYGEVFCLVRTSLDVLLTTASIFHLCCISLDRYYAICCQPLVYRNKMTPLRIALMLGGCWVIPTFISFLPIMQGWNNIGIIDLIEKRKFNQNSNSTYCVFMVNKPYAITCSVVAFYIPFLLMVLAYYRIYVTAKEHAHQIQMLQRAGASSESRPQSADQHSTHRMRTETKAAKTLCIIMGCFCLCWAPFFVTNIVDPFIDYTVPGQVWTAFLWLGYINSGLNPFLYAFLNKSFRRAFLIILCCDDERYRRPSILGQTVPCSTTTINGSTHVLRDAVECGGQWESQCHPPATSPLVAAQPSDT

| inhibition [1] | Compound | antagonist character [1] | Kb [1] [µM] | Ki [2] [µM] | Ki [3] [µM] | Ki [4] [µM] | Ki [5] [µM] | Ki [6] [µM] | Ki [7] [µM] | Ki [8] [µM] | Ki [9] [µM] | Ki [10] [µM] | Ki [11] [µM] | Ki [12] [µM] | Ki [13] | ratio of extravasation, stimulated side over unstimulated side ([14]; at ID100 of 1 mg/Kg, saline controls about 2.0) | ID100 ([14]; rat dural plasma protein extravasation, route not given) [mg/kg] |
| --- | --- | --- | --- | --- | --- | --- | --- | --- | --- | --- | --- | --- | --- | --- | --- | --- | --- |
| about 128% | CN(CCN1CCN(c2nccnc2-c2ccc(F)cc2)CC1)S(=O)(=O)c1ccc(F)cc1.Cl [Example 4, 4-Fluoro-N-{2-[3′-(4-fluoro-phenyl)-2,3,5,6-tetrahydro-[1,2′]bipyrazinyl-4-yl]-ethyl}-N-methyl-benzenesulfonamide hydrochloride] | full antagonists | ~0.024 | – | – | – | – | – | – | – | – | – | – | – | – | – | – |
| – | CN(CCN1CCN(c2nccnc2-c2ccc(F)cc2)CC1)S(=O)(=O)c1cn(C)cn1 [Example 17, 1-Methyl-1H-imidazole-4-sulfonic acid {2-[3′-(4-fluoro-phenyl)-2,3,5,6-tetrahydro-[1,2′]bipyrazinyl-4-yl]-ethyl}-methyl-amide hydrochloride] | – | – | > 6.81 | > 2.43 | > 6.31 | > 1.77 | > 2.32 | 1.5 | > 3.58 | > 7.47 | > 8.36 | > 6.71 | > 5.83 | ~0.0335 µM and 0.0335 µM | – | – |
| – | COCc1ccc(-c2nccnc2N2CCN(CCN(C)S(=O)(=O)c3cnn(C)c3)CC2)cc1.Cl [Example 25, 1-Methyl-1H-pyrazole-4-sulfonic acid {2-[3′-(4-methoxymethyl-phenyl)-2,3,5,6-tetrahydro-[1,2′]bipyrazinyl-4-yl]-ethyl}-methyl-amide hydrochloride] | full antagonists | ~0.0085 | > 6.81 | > 5.29 | > 4.12 | 2.33 | 1.27 | 2.07 | 3.24 | > 7.47 | > 8.36 | 3.32 | > 5.83 | ~0.0194 µM and 0.0194 µM | about 1.1 | 1 |
